Experimental data as given in patent EP4653003A1, “PHARMACEUTICAL COMPOSITION HAVING CERIUM COMPOUND CONTAINING TRIVALENT CERIUM AS ACTIVE INGREDIENT” (Applause Pharma Co., Ltd., priority 2023, dated 2024).

Legend:
[1] = tested on: adenine nephropathy model rats; format: in vivo, Slc:Wistar rat (male)
Description: • · Rat: Slc:Wistar rat (male) delivered at 12 weeks of age (Japan SLC, Inc.) • · Powder feed: AIN-93G powder feed (Funabashi Farm Co., Ltd.) • · Feed for laboratory animal: Labo MR Stock (Nosan Corporation) • · Adenine: (Tokyo Chemical Industry Co., Ltd.) • · Cerium oxide dispersion: Cerium oxide dispersion prepared in [Preparation of Cerium Oxide Dispersion]
• (i) Weighed was 250 g of a powder feed, which was then kneaded with a kitchen machine. • (ii) After kneaded with a kitchen machine for 3 minutes, the feed adhered on the wall surface was scraped off, and then kneaded again for 3 minutes. Approximately 100 mL of hot water was then added evenly. • (iii) The feed was once put together by hands, and further kneaded with the kitchen machine until it became homogeneous. • (iv) The thus kneaded feed was shaped into a rod through a sausage machine. • (v) The thus shaped feed was cut into a cylindrical shape approximately 2.5 cm in diameter and 1.5 cm in thickness. • (vi) The thus shaped cylindrical feed was dried at 38°C in an incubator for two days. • (vii) The feed was weighed to estimate a proportion of residual water content, and dried until the proportion drops to 10% or below. • (viii) The prepared feed was put in a zipper bag, and stored in a refrigerator.
A special feed was prepared by modifying step (ii) for the normal group feed, as described below. (ii) (Ade): While keeping the content under kneading, 0.625 g of adenine was added in small portions, the content was kneaded with a kitchen machine for 3 minutes, the feed adhered on the wall surface was scraped off, and the content was kneaded again for 3 minutes. Approximately 100 mL of hot water was then added evenly.
A special feed was prepared by modifying steps (i) and (ii) for (2) Adenine Group Feed, as described below. • (i) (Ade + Dispersion (A)): Weighed was 246.1 g of the powder feed, which was then kneaded with a kitchen machine. • (ii) (Ade + Dispersion (A)): While keeping the content under kneading, 0.625 g of adenine was added in small portions, the content was kneaded with the kitchen machine for 3 minutes, the feed adhered on the wall surface was scraped off, and the content was kneaded again for 3 minutes. Next, while keeping the content under kneading, 32.7 g of cerium oxide dispersion was added in small portions, the content was kneaded with the kitchen machine for 3 minutes, the feed adhered on the wall surface was scraped off, and the content was kneaded again for 3 minutes. Approximately 70 mL of hot water was then added evenly. […]

[2] = tested on: adenine nephropathy model rats; experiment: Uremic toxin lowering action by cerium chloride: indoxyl sulfate in whole blood by HPLC; format: in vivo; conditions: blood collected by dissection; feed of adenine combined with cerium chloride
Description: A solvent for precipitation (5.56 µmol/L 2-naphthalenesulfonic acid solution in acetonitrile) and a blood sample (whole blood) were mixed in a 1.5 mL polypropylene tube, the mixture was allowed to stand still at room temperature, and then centrifuged to cause solid-liquid separation, thereby obtaining a supernatant. A 10 mmol/L aqueous ammonium acetate solution was added to the thus obtained supernatant, and the mixture was centrifuged to obtain a supernatant. The operation above diluted the blood sample 50 times, with the final concentration of the thus-added 2-naphthalenesulfonic acid adjusted to 1 µmol/L.
Fig. 19 illustrates a diagram, with the indoxyl sulfate concentration in the blood sample collected by dissection plotted on the ordinate, and with the total mole amount of cerium contained in 100 g of feed plotted on the abscissa.

[3] = blood collected by dissection on Day 28, substance mixed in adenine feed, trend against content in 100 g feed

cerium(III) chloride heptahydrate [cerium chloride]
blood urea nitrogen (BUN) [1, 3]: decline as the cerium chloride content in the feed increased | serum creatinine (CRE) [1, 3]: decline as the cerium chloride content in the feed increased | serum phosphorus (IP) [1, 3]: decline as the cerium chloride content in the feed increased | alanine aminotransferase (ALT) ([1]; rat, in vivo): equivalent to that in the normal group | indoxyl sulfate concentration in whole blood [2]: declining tendency
